From patent publication US20150018403A1, “FLUORENE-AMIDE COMPOUNDS AND PHARMACEUTICAL USE THEREOF” (JAPAN TOBACCO INC., priority 2013, published 2015)

Assays:
hERG = molecular target: T1, hERG (Homo sapiens, UniProt Q12809); assay: hERG whole cell patch clamp test; format: cell-based; details: human, HEK293 cells transfected with hERG, pH 7.4, read-out: hERG inhibition rate (%); for inhibition at 3 μmol/L: concentration 3 μmol/L; for inhibition at 30 μmol/L: concentration 30 μmol/L
T1 construct: host or cells: HEK293
T1 sequence (Q12809 whole entry): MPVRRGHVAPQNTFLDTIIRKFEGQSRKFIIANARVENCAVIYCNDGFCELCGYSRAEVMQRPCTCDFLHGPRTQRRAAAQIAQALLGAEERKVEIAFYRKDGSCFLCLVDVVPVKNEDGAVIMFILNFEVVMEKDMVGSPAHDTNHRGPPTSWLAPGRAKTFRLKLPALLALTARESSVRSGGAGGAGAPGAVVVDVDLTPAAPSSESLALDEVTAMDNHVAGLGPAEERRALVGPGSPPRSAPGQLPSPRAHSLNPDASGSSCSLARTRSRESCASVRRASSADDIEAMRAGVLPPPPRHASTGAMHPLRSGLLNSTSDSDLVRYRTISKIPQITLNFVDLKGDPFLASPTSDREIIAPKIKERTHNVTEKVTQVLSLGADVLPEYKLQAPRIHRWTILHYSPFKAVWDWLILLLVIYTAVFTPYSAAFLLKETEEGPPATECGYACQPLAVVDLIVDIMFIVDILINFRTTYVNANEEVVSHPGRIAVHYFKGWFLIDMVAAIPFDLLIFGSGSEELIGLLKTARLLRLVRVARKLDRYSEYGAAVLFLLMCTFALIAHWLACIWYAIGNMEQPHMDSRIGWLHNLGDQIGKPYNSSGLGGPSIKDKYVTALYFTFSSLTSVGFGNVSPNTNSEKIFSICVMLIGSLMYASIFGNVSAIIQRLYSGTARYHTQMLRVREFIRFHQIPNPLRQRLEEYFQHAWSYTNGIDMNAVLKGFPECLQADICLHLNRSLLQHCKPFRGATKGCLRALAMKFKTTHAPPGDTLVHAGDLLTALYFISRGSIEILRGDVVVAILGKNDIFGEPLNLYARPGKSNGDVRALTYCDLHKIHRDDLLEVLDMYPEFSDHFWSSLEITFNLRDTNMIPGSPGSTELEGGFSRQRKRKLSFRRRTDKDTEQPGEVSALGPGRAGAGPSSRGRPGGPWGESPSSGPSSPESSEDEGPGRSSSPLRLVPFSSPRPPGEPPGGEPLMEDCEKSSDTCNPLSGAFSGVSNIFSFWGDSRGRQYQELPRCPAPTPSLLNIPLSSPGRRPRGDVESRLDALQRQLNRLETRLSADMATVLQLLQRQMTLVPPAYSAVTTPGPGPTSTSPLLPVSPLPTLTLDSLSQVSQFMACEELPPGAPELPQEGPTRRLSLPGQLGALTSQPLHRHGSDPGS
Protocol: (§1) Using human ether-a-go-go related gene (hERG)-transfected HEK293 cells (Cytomyx Limited), an influence on hERG current was examined according to the whole cell patch clamp technique. The hERG-transfected HEK293 cells were passaged using a CO2 incubator (BNA-111, TABAI ESPEC CORP.) under the set conditions of 37° C., 5% CO2, saturated humidity. Culture containers used were Collagen Type I Coated 75 cm^2 flask (4123-010, AGC TECHNO GLASS CO., Ltd.) and Collagen Type I Coated 35 mm culture dish (4000-010, AGC TECHNO GLASS CO., Ltd.). The culture medium used was E-MEM (Eagle Minimum Essential Medium (Earle's Salts, Nikken biomedical laboratory) added with 10% FCS (Fetal bovine serum, BioWest, L.L.C.) and 1% MEM Non-Essential Amino Acids Solution (NEAA, Invitrogen Corporation). Geneticin for the selection of hERG gene expressing cells was added thereto to a concentration of 400 μg/mL. As the cells for the measurement, 3×10^4 hERG-transfected HEK293 cells were plated on a 35 mm culture dish 4 to 7 days before measurement of the hERG current. The culture dish produced for the measurement contained the above-mentioned culture medium without geneticin (Invitrogen Corporation).
(§2) The highest evaluation concentration of each compound was determined from the highest concentration at which precipitation was not found in the standard extracellular fluid (NaCl: 140 mmol/L, KCl: 2.5 mmol/L, MgCl2: 2 mmol/L, CaCl2: 2 mmol/L, HEPES: 10 mmol/L, glucose: 10 mmol/L (adjusted to pH 7.4 with Tris-base)). As the application method, each solution to be applied was ejected from a Y-tube having a tip diameter of about 0.25 mm, which was adjacent (about 2 mm) to the cells, and applied to the cells. The ejection rate was about 0.4 mL/min.
(§3) The experiment was performed at room temperature under a phase contrast microscope. The 35 mm culture dish plated with the cells was set on a measurement apparatus, and the standard extracellular fluid was continuously applied to the cells from the Y-tube. A glass electrode for the measurement was filled with an intracellular fluid (Potassium Gluconate: 130 mmol/L, KCl: 20 mmol/L, MgCl2: 1 mmol/L, ATP-Mg: 5 mmol/L, EGTA: 3.5 mmol/L, HEPES: 10 mmol/L (adjusted to pH 7.2 with Tris-base)). A conventional whole cell patch clamp method was applied to the cells, and the maintenance electric potential was set to −80 mV. Under a fixed electric potential, the whole cell current was amplified by an amplifier for patch clamp (AXOPATCH-200B, Axon Instruments, Inc.), and the data was loaded into a computer (IMC-P642400, Intermedical Co., Ltd.) using a data acquisition analysis software (pCLAMP 9.2, Axon Instruments, Inc.).
(§4) The measurement of the hERG current was performed in the following two steps. In both cases, the hERG current was initiated by giving a command potential (maintenance electric potential −80 mV, prepulse+20 mV, 1.5 sec, test-pulse −50 mV, 1.5 sec).
(§5) Step (1): The above-mentioned command potential was given at 0.1 Hz for 2 min.
(§6) Step (2): The above-mentioned command potential was subjected to P/3 subtraction of pCLAMP 9.2 to remove leak current. This was repeated three times and an average thereof was taken as hERG current.
(§7) Subsequent to step (1), Step (2) was performed (about 3 min), and the maximum tail current obtained by applying a test-pulse to the hERG current obtained by the method of step (2) was taken as hERG current value. Hereafter, the operations of (1) and (2) were alternately repeated until completion of the experiment and the hERG current value was measured.
(§8) Stable hERG current value was recorded three times (about 10 min), and the standard extracellular fluid was instantaneously exchanged with each application fluid. The hERG current value was measured three times (about 10 min) in the same manner during perfusion of the application fluid, and the current value obtained by the 3rd measurement was taken as hERG current value after perfusion of the application fluid. […]

[1] = molecular target: T2, hERG current (hERG-transfected HEK293 cells) (Homo sapiens, UniProt Q12809); assay: hERG whole cell patch clamp test; format: cell-based; details: whole cell patch clamp, hERG-transfected HEK293 cells
T2 construct: host or cells: HEK293
T2 sequence (Q12809 whole entry): as above
Protocol: as §1, §2, §3, §4, §5, §6, §7, §8

[2] = Metabolic stability test in human liver microsome; format: in vitro ADME; details: 37° C., 5 μM
Protocol: Human liver microsome (manufactured by Xenotech, H0620, final concentration (after dilution), 0.2 mg protein/mL) was suspended in 100 mM potassium phosphate buffer (pH 7.4, containing β-nicotinamide adenine dinucleotide phosphate: 1.3 mM, D-glucose-6-phosphate: 3.3 mM, magnesium chloride: 3.3 mM, glucose-6-phosphate dehydrogenase: 0.45 U/mL), and further mixed with a test compound dissolved in MeCN/DMSO (95/5) (final concentration 5 μM). The mixture was incubated at 37° C. for 10 min and 60 min, acetonitrile containing formic acid (final concentration 0.1%) was added, and the mixture was centrifuged. The test compound (unmodified) in the supernatant was measured by high performance liquid chromatography/mass spectrometry (LC/MS) (manufactured by Waters, LC: Acquity UPLC, MS:SQ Detector or TQ Detector). The residual ratio (%) was calculated from the obtained measurement value.

tissue PDH activity = assay: Ex vivo PDH activation assay (liver and epididymal adipose tissue mitochondrial fractions after oral dosing); format: in vivo, Sprague-Dawley rats; details: 3 mg/kg, rat
Protocol: The action of test compound on tissue PDH activity was evaluated. NADH production was detected via p-iodonitrotetrazolium violet (INT)-coupled system to measure PDH activity.
Normal male Sprague-Dawley rats were randomly allocated m to the vehicle group and the test compound groups. The vehicle (0.5% aqueous methylcellulose solution, 5 mL/kg) or the test compound was orally administered to the rats. At 5 or 20 hr after administration, the rats were anesthetized with an intraperitoneal injection of sodium pentobarbital (60 mg/kg), and liver slices and epididymal adipose tissues were collected.
(§9) To the liver slices were rapidly added 9 volumes of ice-cold homogenization buffer (0.25 mol/L sucrose, 5 mmol/L tris(hydroxymethyl)aminomethane hydrochloride (pH 7.5), 2 mmol/L EDTA), and the mixtures were homogenized using a Polytron homogenizer. The homogenates were centrifuged at 600×g, 4° C. for 10 min to obtain the supernatant. The supernatants (1 mL) were centrifuged at 16,000×g, 4° C. for 10 min to collect the precipitates. The precipitates were washed by resuspension in the homogenization buffer (1 mL) and centrifuged in the same manner. The precipitates were frozen with liquid nitrogen and stored at −80° C. as the liver mitochondrial fraction.
as §9, with “adipose tissues” for “liver slices”, “3” for “9”, “of an” for “of”, “buffer,” for “buffer (0.25 mol/L sucrose, 5 mmol/L tris(hydroxymethyl)aminomethane hydrochloride (pH 7.5), 2 mmol/L EDTA),”, “supernatants” for “supernatants (1 mL)”, “adipose tissue” for “liver”
The mitochondrial fractions were thawed and suspended with the sample buffer (0.25 mol/L sucrose, 20 mmol/L tris(hydroxymethyl)aminomethane hydrochloride (pH 7.5), 50 mmol/L potassium chloride, and 1 mL/L 4-(1,1,3,3-tetramethylbutyl)phenyl-polyethylene glycol (Triton X-100)). Active PDH activity (PDHa activity) and total PDH activity (PDHt activity) were measured to evaluate the PDH activity. For the measurement of the PDHt activity, equal amounts of the mitochondrial suspension and the activation buffer (0.25 mol/L sucrose, 20 mmol/L tris(hydroxymethyl)aminomethane hydrochloride (pH 7.5), 50 mmol/L potassium chloride, 1 mL/L Triton X-100, 4 mmol/L calcium chloride, 40 mmol/L magnesium chloride, 10 mmol/L sodium dichloroacetate) were mixed, and the mixtures were incubated at 37° C. for 10 min. Forty microliters of the mitochondrial suspensions diluted with a sample buffer were added to a 96-well microplate for activity measurement and blank measurement. Then 180 μL of the reaction mixture (0.056 mmol/L potassium phosphate buffer (pH 7.5), 5.6 mmol/L DL-carnitine, 2.8 mmol/L NAD, 0.22 mmol/L thiamin pyrophosphate, 0.11 mmol/L Coenzyme A, 1.1 mL/L Triton X-100, 1.1 mmol/L magnesium chloride, 1.1 g/L bovine serum albumin, 0.67 mmol/L INT, 7.2 μmol/L phenazine methosulfate, 28 mmol/L sodium oxamate) was added to each well, and then 20 μL of 50 mmol/L sodium pyruvate for activity measurement or water for blank measurement were added. The mixtures were incubated at room temperature under shading. The absorbances at 500-750 nm, which were attributable to reduction of INT, the final electron acceptor, were measured using a microplate reader over time and the changes in the absorbance were calculated. The PDH activity was calculated by subtraction of the change in absorbance of the blank well from that of the activity measurement well. The percentage of the PDHa activity to the PDHt activity was calculated and taken as an index of the PDH activation.

[3] = Metabolic stability test in rat liver microsome; format: in vitro ADME
human PDHK2 (hPDHK2) = molecular target: T3, human PDHK2 (hPDHK2) (Homo sapiens, UniProt Q15119); assay: Inhibitory action of PDHK2 activity in vitro (residual PDH activity after kinase reaction); format: biochemical; details: PDH/hPDHK2 complex, 45 min kinase reaction at room temperature; read-out: hPDHK2 IC50
T3 construct: made in house; host or cells: Escherichia coli BL21(DE3), pET17b vector
Protocol: The inhibitory action of PDHK activity was assessed indirectly by measuring the residual PDH activity after kinase reaction in the presence of a test compound.
In the case of human PDHK2 (hPDHK2, Genbank Accession No. BC040478.1), modified hPDHK2 cDNA wherein FLAG-Tag sequence was added to the N terminus of hPDHK2 cDNA clone (pReceiver-M01/PDK2-GeneCopoeia) was prepared by PCR and cloned into a vector (pET17b-Novagen). The recombinant construct was transformed into Escherichia coli (DH5α-TOYOBO). The recombinant clones were identified, and plasmid DNA was isolated and subjected to the DNA sequence analysis. One clone which had the expected nucleic acid sequence was selected for expression work.
For expression of hPDHK2 activity, Escherichia coli strain BL21(DE3) cells (Novagen) were transformed with the pET17b vector containing modified hPDHK2 cDNA. The Escherichia coli were grown to an optical density 0.6 ([…]) at 30° C. Protein expression was induced by the addition of 500 μmol/L isopropyl-β-thiogalactopyranoside. The Escherichia coli were cultured at 30° C. for 5 hr and harvested by centrifugation. Resuspension of the Escherichia coli paste was disrupted by a microfluidizer. FLAG-Tagged protein was purified using FLAG affinity gel. The gel was washed with 20 mmol/L HEPES-NaOH, 500 mmol/L sodium chloride, 1% ethylene glycol, and 0.1% Pluronic F-68 (pH 8.0), and the binding protein was eluted with 20 mmol/L HEPES-NaOH, 100 μg/mL FLAG peptide, 500 mmol/L sodium chloride, 1% ethylene glycol, and 0.1% Pluronic F-68 (pH 8.0). The eluted fractions containing FLAG-Tagged protein were pooled, dialyzed against 20 mmol/L HEPES-NaOH, 150 mmol/L sodium chloride, 0.5 mmol/L EDTA, 1% ethylene glycol, and 0.1% Pluronic F-68 (pH 8.0), and preserved at −80° C.
0.05 U/mL PDH and 0.8 μg/mL hPDHK2 were mixed in a buffer (50 mmol/L 3-morpholinopropanesulfonic acid (pH 7.0), 20 mmol/L dipotassium hydrogen phosphate, 60 mmol/L potassium chloride, 2 mmol/L magnesium chloride, 0.4 mmol/L EDTA, and 0.2% Pluronic F-68, 2 mmol/L dithiothreitol), and the mixture was incubated at 4° C. overnight to obtain a PDH/hPDHK2 complex. The test compounds were diluted with DMSO. […] DMSO (1.5 μL) was added to control wells instead of the test compound. […] The mixture was incubated at room temperature for 90 min, and the residual PDH activity was measured. The absorbance at 340 nm before and after PDH reaction was measured using a microplate reader to detect NADH produced by the PDH reaction. The hPDHK2 inhibition rate (%) of the test compound was calculated from the formula [{(PDH activity of test compound−PDH activity of control)/PDH activity of blank−PDH activity of control)}×100].

Compound | inhibition at 3 μmol/L (hERG) | inhibition at 30 μmol/L (hERG) | IC50 [1] | stability in liver microsome (residual ratio %) ([2]; 10 min) | stability in liver microsome (residual ratio %) ([2]; 60 min) | PDHa activity (% PDHt activity) (tissue PDH activity; adipose tissue, 5 hr after oral administration) | PDHa activity (% PDHt activity) (tissue PDH activity; adipose tissue, 20 hr after oral administration) | PDHa activity (% PDHt activity) (tissue PDH activity; liver, 5 hr after oral administration) | PDHa activity (% PDHt activity) (tissue PDH activity; liver, 20 hr after oral administration) | stability in liver microsome (residual ratio %) ([3]; 10 min) | stability in liver microsome (residual ratio %) ([3]; 60 min) | IC50 (human PDHK2 (hPDHK2))
CC(C)(O)COc1cc(-c2cnn(CCO)c2)c2c(c1)[C@@](O)(C(F)(F)F)c1ccccc1-2 [compound (C), (9R)-4-[1-(2-Hydroxyethyl)-1H-pyrazol-4-yl]-2-(2-hydroxy-2-methylpropoxy)-9-(trifluoromethyl)-9H-fluoren-9-ol] | 11.5% | 69% | 13.2 µM |  |  |  |  |  |  |  |  | 
C[C@@H](O)COc1cc(-c2cnn(C(C)(C)C(N)=O)c2)c2c(c1)[C@@](O)(C(F)(F)F)c1ccccc1-2 [compound (3), 2-(4-{(9R)-9-hydroxy-2-[(2R)-2-hydroxypropoxy]-9-(trifluoromethyl)-9H-fluoren-4-yl}-1H-pyrazol-1-yl)-2-methylpropanamide] |  |  |  | 98.3% | 99.7% | 59 ± 8 % PDHt activity | 54 % PDHt activity | 74 ± 11 % PDHt activity | 42 % PDHt activity | 99.2% | 99.8% | 0.0047 µM
CC(C)(C(N)=O)n1cc(-c2cc(F)cc3c2-c2ccccc2[C@]3(O)C(F)(F)F)cn1 [compound (D), 2-{4-[(9R)-2-Fluoro-9-hydroxy-9-(trifluoromethyl)-9H-fluoren-4-yl]-1H-pyrazol-1-yl}-2-methylpropanamide] | 9.4% | 67.5% | 14.2 µM |  |  |  |  |  |  |  |  | 
